# System: HL-60 cells
# Test: MTT cytotoxicity assay
# Type: cell-based, human
# Details: HL-60, 24 h, MTT; read-out: IC50 ± SD
# Protocol: (§1) The cytotoxicities for studied compounds were evaluated against leukemia cells (HL-60), as well as ovarian (SKOV-3), prostate (PC-3), and breast (MCF-7) cancer cell lines. The potential selectivity of these compounds towards cancer cells was assessed by determination of their cytotoxicities towards breast non-cancerous cells (MCF-10A). For comparison, cisplatin was added to the cytotoxicity assays.
# (§2) Bacterial strains and cell lines were obtained from the American Type Culture Collection (ATCC).[59] […] Antimicrobial activity was tested in Müeller Hinton (MH) II broth (Becton Dickinson). For anticancer activity assay, the following reagents from Merk were used: 3-(4,5-dimethylthiazol-2-yl)-2,5-diphenyltetrazolium bromide (MTT), sodium dodecyl sulfate (SDS) and HCl. The solubilized formazan product was spectrophotometrically quantified in a Power Wave XS (Bio Tek, Winooski, VT, USA) microplate reader. The HL-60 and PC-3 cells were grown in RPMI-1640 medium with stable glutamine (Biowest) supplemented with 10% (v/v) of heat-inactivated fetal bovine serum (FBS, Biowest) and 1% (v/v) of antibiotic–antimycotic solution (Biowest). The SKOV-3 cells were grown in McCoy's 5A medium with L-glutamine (Biowest) supplemented with 10% (v/v) heat-inactivated FBS, and 1% (v/v) antibiotic–antimycotic solution. The MCF-7 cells were grown in Eagle's MEM (Minimal Essential Medium) medium with stable glutamine (Biowest), supplemented with 10% (v/v) heat-inactivated FBS 1% (v/v) MEM non-essential amino acids (Biowest), 1% (v/v) antibiotic–antimycotic solution, and 1 mM sodium pyruvate (Merck). The MCF-10A cells were grown in Ham's F-12K (Kaighn's) Medium with stable glutamine (Gibco) supplemented with 5% (v/v) heat-inactivated FBS, 1% (v/v) MEM non-essential amino acids, 1% (v/v) antibiotic–antimycotic solution, 5 μg mL^−1 insulin, 0.04 μg mL^−1 hydrocortisone (Merck), and 15 ng mL^−1 human Epidermal Growth Factor (hEGF, PeproTech).
# (§3) The cells were cultured in 96-well plates and incubated with the tested compound for 24 h and 48 h. All experiments were performed in exponentially growing cultures. The 0.03 M solutions of the compounds in DMSO were appropriately diluted using culture media. The maximal final concentration of DMSO in each well was 0.1%. The cytotoxicity of the compounds was measured by determining cell viability with a colorimetric test based on 3-(4,5-dimethylthiazol-2-yl)-2,5-diphenyltetrazolium bromide (MTT). MTT stock solution was added to each well to a final concentration of 0.5 mg mL^−1 and incubated for 4 h at 37 °C; following formazan crystals were dissolved by the addition of sodium dodecyl sulfate (SDS) solution (10% SDS in 0.001 M HCl). MTT and SDS were added directly to the cell culture. The compound's IC50 values (concentration required to reduce the viability of cells by 50% compared with the control cells) were calculated from the data obtained with the MTT assay.
row,Compound,IC50 [µM]
1,"Clc1ccc([O][Re])c2ncccc12.[C-]#[O+].[C-]#[O+].[C-]#[O+].c1c[nH]cn1 [complex 9, [Re(CO)3(ClQ)Him]]",11 ± 1

# Same assay, conditions: HL-60, 48 h, MTT; read-out: IC50 ± SD
row,Compound,IC50 [µM]
1,"Clc1ccc([O][Re])c2ncccc12.[C-]#[O+].[C-]#[O+].[C-]#[O+].c1c[nH]cn1 [complex 9, [Re(CO)3(ClQ)Him]]",8 ± 2

# System: SKOV-3 cells
# Test: MTT cytotoxicity assay
# Type: cell-based, human
# Details: SKOV-3, 24 h, MTT; read-out: IC50 ± SD
# Protocol: as §1, §2, §3
row,Compound,IC50 [µM]
1,"Clc1ccc([O][Re])c2ncccc12.[C-]#[O+].[C-]#[O+].[C-]#[O+].c1c[nH]cn1 [complex 9, [Re(CO)3(ClQ)Him]]",32 ± 5

# Same assay, conditions: SKOV-3, 48 h, MTT; read-out: IC50 ± SD
row,Compound,IC50 [µM]
1,"Clc1ccc([O][Re])c2ncccc12.[C-]#[O+].[C-]#[O+].[C-]#[O+].c1c[nH]cn1 [complex 9, [Re(CO)3(ClQ)Him]]",28 ± 4

# System: PC-3 cells
# Test: MTT cytotoxicity assay
# Type: cell-based, human
# Details: PC-3, 24 h, MTT; read-out: IC50 ± SD
# Protocol: as §1, §2, §3
row,Compound,IC50 [µM]
1,"Clc1ccc([O][Re])c2ncccc12.[C-]#[O+].[C-]#[O+].[C-]#[O+].c1c[nH]cn1 [complex 9, [Re(CO)3(ClQ)Him]]",29 ± 4

# Same assay, conditions: PC-3, 48 h, MTT; read-out: IC50 ± SD
row,Compound,IC50 [µM]
1,"Clc1ccc([O][Re])c2ncccc12.[C-]#[O+].[C-]#[O+].[C-]#[O+].c1c[nH]cn1 [complex 9, [Re(CO)3(ClQ)Him]]",22 ± 3

# System: MCF-7 cells
# Test: MTT cytotoxicity assay
# Type: cell-based, human
# Details: MCF-7, 24 h, MTT; read-out: IC50 ± SD
# Protocol: as §1, §2, §3
row,Compound,IC50 [µM]
1,"Clc1ccc([O][Re])c2ncccc12.[C-]#[O+].[C-]#[O+].[C-]#[O+].c1c[nH]cn1 [complex 9, [Re(CO)3(ClQ)Him]]",58 ± 7

# Same assay, conditions: MCF-7, 48 h, MTT; read-out: IC50 ± SD
row,Compound,IC50 [µM]
1,"Clc1ccc([O][Re])c2ncccc12.[C-]#[O+].[C-]#[O+].[C-]#[O+].c1c[nH]cn1 [complex 9, [Re(CO)3(ClQ)Him]]",47 ± 6

# System: P. aeruginosa ATCC27853
# Test: Broth microdilution MIC/MBC (ISO 20776-1)
# Type: cell-based, Pseudomonas aeruginosa
# Details: P. aeruginosa ATCC27853, >99.99% reduction of growth
# Protocol: as §2
# (§4) The in vitro antibacterial activity was determined according to ISO 20776-1.[88] Among the tested microorganisms were Gram-negative rods, E. coli ATCC25922 and P. aeruginosa ATCC27853, and Gram-positive cocci, S. aureus ATCC29213 and E. faecalis ATCC29212. The selected bacterial species represented the most common etiologic agents of human infections and are used for quality control of antimicrobial susceptibility testing.[89] The test procedure included the determination of MICs and MBCs of complexes and their free ligands. MIC and MBC determinations of ciprofloxacin, as the reference antibiotic, were also performed. All compounds were dissolved in DMSO to reach the maximum 512 mg L^−1 concentration. […] The assay consisted of preparing 2-fold dilutions of the substances in a liquid growth medium MH II and inoculating them with a standardized suspension of microorganisms at a McFarland density of 0.5 (≈10^8 CFU mL^−1). The culture plates were incubated at 35 °C for 24 h. The lowest concentration of the compound inhibiting visible bacterial growth was specified as MIC, and the concentration that reduced bacterial growth by >99.99% after counting live bacteria on the plates compared to the positive control was defined as MBC.
row,Compound,MBC [µg/mL]
1,"Clc1ccc([O][Re])c2ncccc12.[C-]#[O+].[C-]#[O+].[C-]#[O+].c1c[nH]cn1 [complex 9, [Re(CO)3(ClQ)Him]]",> 512

# Same assay, conditions: P. aeruginosa ATCC27853, MH II broth, 35 °C, 24 h
row,Compound,MIC [µg/mL]
1,"Clc1ccc([O][Re])c2ncccc12.[C-]#[O+].[C-]#[O+].[C-]#[O+].c1c[nH]cn1 [complex 9, [Re(CO)3(ClQ)Him]]",256

# System: E. coli ATCC25922
# Test: Broth microdilution MIC/MBC (ISO 20776-1)
# Type: cell-based, Escherichia coli
# Details: E. coli ATCC25922, >99.99% reduction of growth
# Protocol: as §2, §4
row,Compound,MBC
1,"Clc1ccc([O][Re])c2ncccc12.[C-]#[O+].[C-]#[O+].[C-]#[O+].c1c[nH]cn1 [complex 9, [Re(CO)3(ClQ)Him]]",256/256 mg L^−1

# Same assay, conditions: E. coli ATCC25922, MH II broth, 35 °C, 24 h
row,Compound,MIC
1,"Clc1ccc([O][Re])c2ncccc12.[C-]#[O+].[C-]#[O+].[C-]#[O+].c1c[nH]cn1 [complex 9, [Re(CO)3(ClQ)Him]]",256/256 mg L^−1

# System: E. faecalis ATCC29212
# Test: Broth microdilution MIC/MBC (ISO 20776-1)
# Type: cell-based, Enterococcus faecalis
# Details: E. faecalis ATCC29212, >99.99% reduction of growth
# Protocol: as §2, §4
row,Compound,MBC [µg/mL]
1,"Clc1ccc([O][Re])c2ncccc12.[C-]#[O+].[C-]#[O+].[C-]#[O+].c1c[nH]cn1 [complex 9, [Re(CO)3(ClQ)Him]]",> 512

# Same assay, conditions: E. faecalis ATCC29212, MH II broth, 35 °C, 24 h
row,Compound,MIC [µg/mL]
1,"Clc1ccc([O][Re])c2ncccc12.[C-]#[O+].[C-]#[O+].[C-]#[O+].c1c[nH]cn1 [complex 9, [Re(CO)3(ClQ)Him]]",64

# System: MCF-10A cells
# Test: MTT cytotoxicity assay
# Details: read-out: IC50 ± SD; MCF-10A (non-cancerous), 24 h, MTT; * precipitation of the complex
# Protocol: as §1, §2, §3
row,Compound,IC50 [µM]
1,"Clc1ccc([O][Re])c2ncccc12.[C-]#[O+].[C-]#[O+].[C-]#[O+].c1c[nH]cn1 [complex 9, [Re(CO)3(ClQ)Him]]",42 ± 2

# Same assay, conditions: read-out: IC50 ± SD; MCF-10A (non-cancerous), 48 h, MTT; * precipitation of the complex
row,Compound,IC50 [µM]
1,"Clc1ccc([O][Re])c2ncccc12.[C-]#[O+].[C-]#[O+].[C-]#[O+].c1c[nH]cn1 [complex 9, [Re(CO)3(ClQ)Him]]",24 ± 1

# System: S. aureus ATCC29213
# Test: Broth microdilution MIC/MBC (ISO 20776-1)
# Type: cell-based, Staphylococcus aureus
# Details: S. aureus ATCC29213, >99.99% reduction of growth
# Protocol: as §2, §4
row,Compound,MBC
1,"Clc1ccc([O][Re])c2ncccc12.[C-]#[O+].[C-]#[O+].[C-]#[O+].c1c[nH]cn1 [complex 9, [Re(CO)3(ClQ)Him]]",>512/>512 mg L^−1

# Same assay, conditions: S. aureus ATCC29213, MH II broth, 35 °C, 24 h
row,Compound,MIC
1,"Clc1ccc([O][Re])c2ncccc12.[C-]#[O+].[C-]#[O+].[C-]#[O+].c1c[nH]cn1 [complex 9, [Re(CO)3(ClQ)Him]]",>512/>512 mg L^−1
